Assay results from patent US20030170722A1, “Methods and reagents for regulating apoptosis” (priority 2001, published 2003).

Legend:
Assay type in all cases: cell-based
[1] = system: Rat2 fibroblasts; conditions: control cells, CCCP 50 μM
Experimental: Measurement of Mitochondrial Membrane Potential in Cells Expressing M11L Constructs. Rat2puro or Rat2M11L cells were cultured in 12-well plates (5×10^5 cells/well) and treated with 2 μM staurosporine for 4 h. As the staurosporine stock was prepared in DMSO, control cells were treated with an equivalent amount of DMSO alone. Thereafter, the cells were stained with the green fluorescent dye 3,3′dihexyloxacarbocyanine iodide (DiOC6; Molecular Probes). […] Cells were incubated with 0.5 nM DiOC6 at 37° C. for 10 min, harvested with trypsin, and then washed and resuspended in RPMI lacking phenol red (GIBCO BRL). […] CCCP was added to the cell culture medium at a final concentration of 50 μM during and after dye addition. Flow cytometric analysis was conducted using a Becton Dickinson FACSCalibur™ flow cytometer equipped with an argon ion laser with 15 mW of excitation at 488 nm. Data were acquired at 10,000 cells per sample, and the fluorescent signal due to excitation of DiOC6 at 488 nm was detected through the FL1 channel equipped with a 530 nm filter (30 nm band pass). Light scatter signals were acquired at linear gain, and fluorescence signals were acquired at logarithmic gain.

[2] = system: HeLa cells; test: Mitochondrial membrane potential by TMRE fluorescence in HeLa cells expressing GFP constructs; conditions: CCCP
Experimental: Measurement of Mitochondrial Membrane Potential in Cells Expressing M11L Constructs. […] Flow cytometric analysis was conducted using a Becton Dickinson FACSCalibur™ flow cytometer equipped with an argon ion laser with 15 mW of excitation at 488 nm. […] HeLa cells transiently expressing GFP plasmid constructs were treated with 2.5 μM staurosporine, and control samples were treated with DMSO alone. […] Flow cytometric analysis to detect green fluorescence due to GFP and orange fluorescence due to TMRE was conducted using a FACSCalibur™ instrument specified above. GFP fluorescence was collected after a 530/30-nm band pass filter, and TMRE fluorescence was acquired through a 585/42-nm band pass filter. Electronic fluorescence compensation was set to eliminate any spectral overlap of the emitted signals. Data were acquired at 10,000 cells per sample with fluorescence signals at logarithmic gain. The percentage of GFP-positive cells that were also TMRE-positive was then calculated for each gated cell population.

[3] = system: Caspase-3; test: Caspase-3 activation by SDS-PAGE and immunoblot in Rat2puro / Rat2M11L cells; conditions: 5 μM staurosporine, 4 h
Experimental: Measurement of Caspase-3 Activation. Rat2puro and Rat2-M11L cells (10^6) were incubated with 5 μM staurosporine for up to 4 h. Caspase-3 activation was detected by SDS-PAGE and immunoblot analysis as described (30) using an antibody directed against the large subunit of the active enzyme (provided by Dr. D. Nicholson, MerckFrosst Center for Therapeutic Research, Montreal, Quebec, Canada).

[4] = system: Rat2 fibroblasts; test: TUNEL analysis of staurosporine-induced apoptosis in Rat2puro / Rat2M11L cells; conditions: 2 μM staurosporine, 5 h
Experimental: Ectopic Expression of M11L. Control pBabePuro and pBabe-PuroM11L vectors were transiently transfected into BOSC 23 cells and packaged into ecotropic virus particles as described (27). After infection of Rat2 fibroblasts, pooled clones of cells that had stably incorporated the respective proviruses were selected on the basis of ability to grow in the presence of 2.5 μg/ml puromycin, and designated Rat2puro and Rat2M11L. Expression of the M11L protein by Rat2M11L cells was verified by immunoblot analysis (data not shown). Transient expression of GFP chimeric proteins for flow cytometry was accomplished by transfecting HeLa cells with GFP plasmid constructs using the Lipofectin Plus reagent (GIBCO BRL) as described (28). Analysis was conducted 24 h after transfection.
Induction and Measurement of Apoptosis. Apoptosis was induced by addition of staurosporine (Sigma Chemical Co.) to the cell culture medium at a final concentration of 2 μM. Apoptotic cells were identified by measuring the characteristic elevation in levels of nicked DNA using the previously described terminal deoxynucleotidyl transferase-mediated dUTP-fluorescein nick end labeling (TUNEL) reaction (19, 29).

carbonyl cyanide mchlorophenyl hydrazone [CCCP]
DiOC6 fluorescence (mitochondrial membrane potential) [1]: Fluorescence was diminished
TMRE fluorescence (mitochondrial membrane potential) [2]: induced a marked loss of TMRE fluorescence

CN[C@@H]1C[C@H]2O[C@@](C)([C@@H]1OC)n1c3ccccc3c3c4c(c5c6ccccc6n2c5c31)C(=O)NC4 [staurosporine]
Caspase-3 activation (32 kD proenzyme reduced, p19 cleavage product) [3]: resulted in activation of Caspase-3
levels of TUNEL-positive (apoptotic) cells [4]: steady increase in the levels of TUNEL-positive Rat2puro cells
